In patent US20110301235A1, “ORGANOSELENIUM COMPOUNDS AND USES THEREOF” (Alquest Therapeutics, Inc., priority 2009, published 2011):
≈ marks a conversion by molar mass, not a printed value. Where two headings read alike, the source gives them in different places.

Assay: Solubility measurements
Format: physicochemical
Conditions: kinetic from dmso stock
Protocol: A 2-fold serial dilution of compounds was prepared in 25 mM Hepes pH 7.4, 100 mM NaCl. After 30 minutes at room temperature, precipitates were removed by centrifugation at 18,000×G for 15 min. The supernatant was transferred to a microtiter plate and absorbance at 260 nm was determined. The concentration at which there was no longer a linear increase in absorbance was determined as the solubility limit. The compounds in the examples generally had better solubilities than the reference compound 2-phenyl-1,2-benzisoselenazol-3(2H)-one (66-100 μM), with the compounds described in Examples 1-9 having solubilities of 300, 300, 100, 66-100, 300, 300-600, 1000, 1000, and 1000 μM.

[1] = aqueous buffer, 25 mM Hepes pH 7.4, 100 mM NaCl, 30 minutes at room temperature, centrifuged, absorbance at 260 nm, read-out: solubility (solubility limit)

CCOC(=O)[C@H](CS[Se]c1ccccc1C(=O)Nc1ccccc1)NC(C)=O [Example 4]
solubility at 30 min (pH 7.4, aqueous buffer): 66 to 100 µM (≈ 30.7 to 46.5 µg/mL)

CC(=O)N[C@@H](CS[Se]c1ccccc1C(=O)Nc1ccccc1)C(=O)O [Example 2]
solubility at 30 min (pH 7.4, aqueous buffer): 300 µM (≈ 131 µg/mL)

CC(C)(CO)[C@@H](O)C(=O)NCCC(=O)NCCS[Se]c1ccccc1C(=O)Nc1ccccc1 [Example 1]
solubility at 30 min (pH 7.4, aqueous buffer): 300 µM (≈ 166 µg/mL)

CCOC(=O)CNC(=O)[C@H](CS[Se]c1ccccc1C(=O)Nc1ccccc1)NC(=O)CC[C@H](N)C(=O)O.Cl [Example 8]
solubility at 30 min [1]: 1000 µM

Cl.N[C@@H](CCC(=O)N[C@@H](CS[Se]c1ccccc1C(=O)Nc1ccccc1)C(=O)NCC(=O)O)C(=O)O [Example 9]
solubility at 30 min [1]: 1000 µM

Cl.NCCS[Se]c1ccccc1C(=O)Nc1ccccc1 [Example 5]
solubility at 30 min [1]: 300 µM

O=c1c2ccccc2[se]n1-c1ccccc1 [2-phenyl-1,2-benzisoselenazol-3(2H)-one, reference compound]
solubility at 30 min (100 mM NaCl buffer, aqueous buffer, 25 mM Hepes pH 7.4, 100 mM NaCl, 30 minutes at room temperature, centrifuged, absorbance at 260 nm, read-out: solubility (solubility limit)): 66 to 100 µM (≈ 18.1 to 27.4 µg/mL)

O=C(Nc1ccccc1)c1ccccc1[Se]SCCS(=O)(=O)O [Example 7]
solubility at 30 min (pH 7.4, aqueous buffer): 1000 µM (≈ 416 µg/mL)

O=C(Nc1ccccc1)c1ccccc1[Se]SCCO [Example 6]
solubility at 30 min (pH 7.4, aqueous buffer): 300 to 600 µM (≈ 106 to 211 µg/mL)

CCOC(=O)[C@@H](N)CS[Se]c1ccccc1C(=O)Nc1ccccc1.Cl [Example 3]
solubility at 30 min [1]: 100 µM
